The term half-life denotes the time needed for the level to fall by half in the phase considered. A higher half-life goes with slow loss.

The results in this text go back to ChEMBL document CHEMBL1127646, “Mechanism-based isocoumarin inhibitors for blood coagulation serine proteases. Effect of the 7-substituent in 7-amino-4-chloro-3-(isothioureidoalkoxy)isocoumarins on inhibitory and anticoagulant potency” (J Med Chem, 1994).

Data set [1] addresses Prothrombin (Homo sapiens) (UniProt P00734). Put plainly: Inhibition of human thrombin (inhibitor concentration 1.2-54 uM).
Data set [2] can be described thus: Anticoagulant activity was determined in Ortho-activated thrombofax (APTT) assay at a dose 32 uM in human dead plasma. It counts as functional.
Data set [3] can be described thus: Hydrolysis half life (t1/2). It is filed as ADME.
Data set [4] is described as follows: Anticoagulant activity was determined in Ortho-activated thrombofax (APTT) assay at a dose 31 uM in human dead plasma. It is filed as functional.
A short description of data set [5]: Anticoagulant activity was determined in Ortho-activated thrombofax (APTT) assay at a dose 9.4 uM in human dead plasma. It is filed as functional.
Data set [6] addresses Tissue factor (Homo sapiens) (UniProt P13726). Put plainly: Anticoagulant activity in PT assay at a dose of 31 uM.
The target in data set [7] is Coagulation factor X (Homo sapiens) (UniProt P00742). Put plainly: Inhibition of human factor Xa (inhibitor concentration were 3.6-44 uM).
Chain of Coagulation factor X (Homo sapiens) (P00742 41-179 limits assumed): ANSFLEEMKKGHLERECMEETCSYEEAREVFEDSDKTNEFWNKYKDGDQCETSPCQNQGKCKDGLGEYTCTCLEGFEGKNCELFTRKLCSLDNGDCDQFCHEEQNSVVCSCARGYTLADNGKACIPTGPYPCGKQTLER
Chain of Coagulation factor X (Homo sapiens) (P00742 235-488 limits assumed): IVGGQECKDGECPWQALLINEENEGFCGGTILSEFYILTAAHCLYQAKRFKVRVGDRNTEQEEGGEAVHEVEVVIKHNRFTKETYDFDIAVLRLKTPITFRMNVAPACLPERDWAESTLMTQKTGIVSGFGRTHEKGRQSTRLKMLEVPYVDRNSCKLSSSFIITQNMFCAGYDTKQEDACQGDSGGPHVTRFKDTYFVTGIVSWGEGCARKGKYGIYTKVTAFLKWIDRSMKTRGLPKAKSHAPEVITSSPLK
The target in data set [8] is T1, Coagulation factor III (Sus scrofa) (UniProt Q6RCS8).
T1 sequence (whole entry): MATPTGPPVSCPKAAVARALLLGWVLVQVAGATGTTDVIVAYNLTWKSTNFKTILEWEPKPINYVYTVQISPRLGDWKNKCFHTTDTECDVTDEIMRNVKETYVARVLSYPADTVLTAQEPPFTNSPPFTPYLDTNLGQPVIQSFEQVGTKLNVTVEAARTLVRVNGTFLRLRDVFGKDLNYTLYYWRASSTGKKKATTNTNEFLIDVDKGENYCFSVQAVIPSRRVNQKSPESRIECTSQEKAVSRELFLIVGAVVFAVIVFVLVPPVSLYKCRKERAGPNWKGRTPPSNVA
Put plainly: Anticoagulant activity in PT assay at a dose 16 uM.

The target in data set [9] is T2, Coagulation factor VII (Homo sapiens) (UniProt P08709).
T2 sequence (whole entry): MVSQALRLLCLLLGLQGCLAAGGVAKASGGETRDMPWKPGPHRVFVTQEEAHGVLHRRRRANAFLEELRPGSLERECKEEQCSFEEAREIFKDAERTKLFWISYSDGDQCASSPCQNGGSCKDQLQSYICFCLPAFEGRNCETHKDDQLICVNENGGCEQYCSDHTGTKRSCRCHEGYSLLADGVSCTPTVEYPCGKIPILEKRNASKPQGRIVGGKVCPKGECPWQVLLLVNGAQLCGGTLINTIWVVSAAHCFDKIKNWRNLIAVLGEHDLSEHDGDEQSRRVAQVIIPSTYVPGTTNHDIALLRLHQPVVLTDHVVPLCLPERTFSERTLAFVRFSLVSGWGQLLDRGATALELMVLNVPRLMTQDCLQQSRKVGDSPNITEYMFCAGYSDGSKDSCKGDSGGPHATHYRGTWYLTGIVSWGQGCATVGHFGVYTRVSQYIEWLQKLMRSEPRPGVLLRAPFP
Put plainly: Inhibition of human coagulation factor VII at 7.2-44 uM.

A short description of data set [10]: Anticoagulant activity was determined in Ortho-activated thrombofax (APTT) assay at a dose 16 uM in pig plasma. It counts as functional, Sus scrofa.
The target of data set [11] is Coagulation factor IX (Homo sapiens) (UniProt P00740). Put plainly: Inhibition of porcine factor IXa at 8.3-82 uM. To be noted: Sus scrofa, target entry is the homologue from another species.
Data set [12] has as its target T3, Coagulation factor XII (Homo sapiens) (UniProt P00748).
T3 sequence (whole entry): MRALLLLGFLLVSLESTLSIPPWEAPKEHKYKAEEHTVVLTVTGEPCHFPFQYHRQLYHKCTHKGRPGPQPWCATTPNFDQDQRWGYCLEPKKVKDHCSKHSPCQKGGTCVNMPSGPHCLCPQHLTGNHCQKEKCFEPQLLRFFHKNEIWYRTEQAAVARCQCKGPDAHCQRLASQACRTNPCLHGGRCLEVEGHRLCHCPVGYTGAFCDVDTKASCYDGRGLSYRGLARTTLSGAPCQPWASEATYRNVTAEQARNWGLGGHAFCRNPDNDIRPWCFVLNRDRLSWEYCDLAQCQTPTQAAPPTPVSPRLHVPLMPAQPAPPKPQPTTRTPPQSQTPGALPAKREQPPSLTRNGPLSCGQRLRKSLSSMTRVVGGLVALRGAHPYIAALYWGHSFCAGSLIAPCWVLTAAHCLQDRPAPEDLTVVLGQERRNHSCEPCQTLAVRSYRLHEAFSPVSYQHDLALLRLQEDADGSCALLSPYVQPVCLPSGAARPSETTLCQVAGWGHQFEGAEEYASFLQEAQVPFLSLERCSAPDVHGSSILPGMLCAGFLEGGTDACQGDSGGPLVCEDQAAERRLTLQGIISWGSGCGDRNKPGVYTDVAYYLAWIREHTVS
Put plainly: Inhibition of human coagulation factor XII (inhibitor concentration were 3.6-4.9 uM).

For data set [13], the target named is T1, Coagulation factor III (Sus scrofa). Put plainly: Anticoagulant activity in PT assay at a dose 32 uM.
In data set [14] the target is Coagulation factor XI (Homo sapiens) (UniProt P03951). Put plainly: Compound was evaluated for inhibition of enzyme human coagulation factor XI (inhibitor concentration were 0.7-0.8 uM).
Chain of Coagulation factor XI (Homo sapiens) (P03951 19-387 limits assumed): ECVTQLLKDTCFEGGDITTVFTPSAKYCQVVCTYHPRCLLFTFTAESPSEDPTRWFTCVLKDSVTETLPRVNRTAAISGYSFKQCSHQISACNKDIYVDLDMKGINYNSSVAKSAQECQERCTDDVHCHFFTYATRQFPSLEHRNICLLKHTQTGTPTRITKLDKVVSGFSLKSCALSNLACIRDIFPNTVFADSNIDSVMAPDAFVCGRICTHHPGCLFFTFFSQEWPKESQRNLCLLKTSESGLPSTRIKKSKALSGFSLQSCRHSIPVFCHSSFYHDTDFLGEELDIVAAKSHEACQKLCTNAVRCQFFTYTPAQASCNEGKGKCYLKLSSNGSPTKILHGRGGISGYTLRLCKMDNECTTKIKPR
Chain of Coagulation factor XI (Homo sapiens) (P03951 388-625 limits assumed): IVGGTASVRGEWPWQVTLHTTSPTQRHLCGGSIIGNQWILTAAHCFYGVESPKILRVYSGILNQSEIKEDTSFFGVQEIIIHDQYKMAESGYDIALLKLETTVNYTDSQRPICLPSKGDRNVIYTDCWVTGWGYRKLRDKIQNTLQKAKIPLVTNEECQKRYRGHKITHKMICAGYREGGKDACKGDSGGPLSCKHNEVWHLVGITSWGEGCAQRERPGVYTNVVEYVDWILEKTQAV
The next data set deals with Prothrombin (Bos taurus) (UniProt P00735). Put plainly: Inhibition of bovine thrombin (inhibitor concentration 1.2-54 uM).
Data set [15] deals with T1, Coagulation factor III (Sus scrofa). Put plainly: Anticoagulant activity in PT assay at a dose of 32 uM.
A short description of data set [16]: Anticoagulant activity was determined in Ortho-activated thrombofax (APTT) assay at a dose 32 uM in pig plasma. It counts as functional, Sus scrofa.

Chain of Tissue factor (Homo sapiens) (P13726 whole entry): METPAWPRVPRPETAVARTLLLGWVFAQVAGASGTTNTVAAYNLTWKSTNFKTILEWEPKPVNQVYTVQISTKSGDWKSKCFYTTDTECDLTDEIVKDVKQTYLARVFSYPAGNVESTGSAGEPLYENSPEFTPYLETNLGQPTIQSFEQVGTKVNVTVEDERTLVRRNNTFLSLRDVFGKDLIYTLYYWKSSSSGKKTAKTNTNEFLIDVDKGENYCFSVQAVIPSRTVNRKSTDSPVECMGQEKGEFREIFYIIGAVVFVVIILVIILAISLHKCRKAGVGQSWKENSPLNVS

In data set [1], `N=C(N)SCCOc1oc(=O)c2cc(NC(=O)CCc3ccccc3)ccc2c1Cl` displayed a K obs / 1 of 2150 M⁻¹ s⁻¹. In addition, the APTT in data set [2] was found to be 140 s; in [4] it was 76.2 s; in data set [5], 52.4 s. In addition, the half-life in data set [3] was 0.65 h. In data set [6], this compound gave a PT of 24.4 s.

For `N=C(N)SCCOc1oc(=O)c2cc(NC(=O)Nc3ccccc3)ccc2c1Cl`, the K obs / 1 in [1] was 22400 M⁻¹ s⁻¹; in [7], 4740 M⁻¹ s⁻¹; in data set [9], 3140 M⁻¹ s⁻¹; in data set [11], 1790 M⁻¹ s⁻¹; in data set [12], 50000 M⁻¹ s⁻¹; in data set [14] it was 104000 M⁻¹ s⁻¹. In addition, the K obs / 1 at Prothrombin (Bos taurus) was found to be 25000 M⁻¹ s⁻¹. Besides, the PT amounted to 28.5 s in data set [8] and 58.3 s in data set [13]. Besides, the half-life in data set [3] was found to be 1.8 h. The results for the APTT in [4], in [10] and in data set [5] were 87.3 s, over 120 s and 47.7 s, respectively.

Consider `C[C@@H](NC(=O)Nc1ccc2c(Cl)c(OCCSC(=N)N)oc(=O)c2c1)c1ccccc1`, for which the K obs / 1 in data set [1] amounted to 12000 M⁻¹ s⁻¹; at Prothrombin (Bos taurus), 29500 M⁻¹ s⁻¹. Moreover, in data set [3], the half-life is 1.03 h. The same compound returned a PT in [15] of 26.2 s. In [16], this compound showed an APTT of over 120 s.
